Counter-ions that a name gives are not always drawn.
biological target: T1, 5-HT transporter (Rattus norvegicus, UniProt P31652); assay: Inhibition of 5-HT uptake in rat brain synaptosomes; assay type: biochemical; conditions: Table III; rat, 1 μM
T1 construct: synaptosomes of rat brain areas are freshly isolated; from tissue; host or cells: rat brain synaptosomes (P2 fraction) from marrow and pons
T1 sequence (P31652 whole entry): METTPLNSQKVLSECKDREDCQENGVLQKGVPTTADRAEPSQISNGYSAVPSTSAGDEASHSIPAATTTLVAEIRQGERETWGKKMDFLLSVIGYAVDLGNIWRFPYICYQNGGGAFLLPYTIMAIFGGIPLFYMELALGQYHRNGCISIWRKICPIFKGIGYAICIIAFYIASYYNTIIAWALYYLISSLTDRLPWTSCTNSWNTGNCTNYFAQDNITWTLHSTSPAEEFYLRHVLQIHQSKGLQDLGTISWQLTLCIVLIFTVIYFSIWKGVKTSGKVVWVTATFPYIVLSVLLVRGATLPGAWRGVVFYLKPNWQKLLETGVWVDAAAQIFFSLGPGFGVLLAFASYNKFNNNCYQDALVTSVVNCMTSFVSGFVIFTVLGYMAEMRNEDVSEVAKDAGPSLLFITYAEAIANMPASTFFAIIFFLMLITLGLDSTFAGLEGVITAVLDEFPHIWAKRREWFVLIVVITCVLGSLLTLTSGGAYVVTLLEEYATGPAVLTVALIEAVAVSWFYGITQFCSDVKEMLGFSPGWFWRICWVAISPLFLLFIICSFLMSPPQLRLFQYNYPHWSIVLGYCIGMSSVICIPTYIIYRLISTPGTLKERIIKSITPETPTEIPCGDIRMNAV

Uptake 5-HT, rat, 1 μM, % inhibition [%]	Compound
44	CC(=O)Nc1ccc(C(=O)N2CCC3(CC2)NC(CC(C)C)C(=O)N3CCCCOC(C)=O)cc1 (centres unmarked) [Example 255, Butyl 4-[8-(4-acetylaminobenzoyl)-3-isobutyl-2-oxo-1,4,8-triazaspiro[4,5]dec-1-yl]acetate]
50	C=CCN1C(=O)C(CCSC)NC12CCN(C(=O)c1ccc(S(N)(=O)=O)cc1)CC2 (centres unmarked) [Example 259, 4-[1-Allyl-3-(2-methylsulfanylethyl)-2-oxo-1,4,8-triazaspiro[4,5]decan-8-carbonyl]benzolsulfonamide]

same assay, conditions: characteristic data of the 5-HT transporter, rat synaptosomes

Compound	Km [µM]
NCCc1c[nH]c2ccc(O)cc12 [Example 5-HT, reference compound]	0.084 ± 0.011

same assay, conditions: read-out: Uptake 5-HT, % inhibition; Table II; rat, 1 μM

Compound	inhibition at 1 µM [%]
CCC(CC)C(=O)N1CCC2(CC1)NC(CCSC)C(=O)N2Cc1ccccc1 (centres unmarked) [Example 33, 1-benzyl-8-(2-ethylbutyryl)-3-(2-methylsulfanylethyl)-1,4,8-triazaspiro[4,5]decan-2-one hydrochloride]	49

same assay, conditions: read-out: Uptake 5-HT, % inhibition; Table III; rat, 1 μM

Compound	inhibition at 1 µM [%]
COC(=O)c1ccc(CN2C(=O)CNC23CCN(C(=O)C2CCCC2)CC3)cc1 [Example 269, Methyl 4-(8-cyclopentanecarbonyl-2-oxo-1,4,8-triazaspiro[4,5]dec-1-ylmethyl)benzoate]	40
CCCCN1C(=O)C(Cc2ccccc2)NC12CCN(C(=O)c1ccccn1)CC2 (centres unmarked) [Example 202, 3-Benzyl-1-butyl-8-(pyridin-2-carbonyl)-1,4,8-triazaspiro[4,5]decan-2-one]	56
COC(=O)c1ccc(CN2C(=O)CNC23CCN(C(=O)c2cccnc2SC)CC3)cc1 [Example 254, Methyl 4-[8-(2-methylsulfanylpyridin-3-carbonyl)-2-oxo-1,4,8-triazaspiro[4,5]dec-1-ylmethyl]benzoate]	34
CSCCC1NC2(CCN(C(=O)c3ccccn3)CC2)N(Cc2ccccc2F)C1=O (centres unmarked) [Example 170, 1-(2-Fluorobenzyl)-3-(2-methylsulfanylethyl)-8-(pyridin-2-carbonyl)-1,4,8-triazaspiro[4,5]decan-2-one]	46
CSCCC1NC2(CCN(C(=O)c3c(F)ccc(C)c3F)CC2)N(C)C1=O (centres unmarked) [Example 231, 8-(2,6-Difluoro-3-methylbenzoyl)-1-methyl-3-(2-methylsulfanylethyl)-1,4,8-triazaspiro[4,5]decan-2-one]	31
CCCCN1C(=O)C(CCSC)NC12CCN(C(=O)c1ccc(OC)cc1)CC2 (centres unmarked) [Example 144, 1-Butyl-8-(4-methoxybenzoyl)-3-(2-methylsulfanylethyl)-1,4,8-triazaspiro[4,5]decan-2-one]	51
C#CCN1C(=O)C(Cc2ccccc2)NC12CCN(C(=O)c1ccco1)CC2 (centres unmarked) [Example 186, 3-Benzyl-8-(furan-2-carbonyl)-1-prop-2-ynyl-1,4,8-triazaspiro[4,5]decan-2-one]	32
CCOC(=O)CC(=O)N1CCC2(CC1)NCC(=O)N2CCOc1ccccc1 [Example 74, Ethyl 3-oxo-3-[2-oxo-1-(2-phenoxyethyl)-1,4,8-triazaspiro[4,5]dec-8-yl]propionate]	47
C#CCN1C(=O)C(CCSC)NC12CCN(C(=O)C1CCC1)CC2 (centres unmarked) [Example 152, 8-Cyclobutanecarbonyl-3-(2-methylsulfanylethyl)-1-prop-2-ynyl-1,4,8-triazaspiro[4,5]decan-2-one]	56
CCOC(=O)CN1C(=O)C(Cc2ccccc2)NC12CCN(C(=O)C1CCC1)CC2 (centres unmarked) [Example 319, Ethyl (3-benzyl-8-cyclobutanecarbonyl-2-oxo-1,4,8-triazaspiro[4,5]dec-1-yl)acetate]	70
CC(C)=CCN1C(=O)C(C(C)C)NC12CCN(C(=O)c1ccncc1)CC2 (centres unmarked) [Example 87, 3-Isopropyl-1-(3-methylbut-2-enyl)-8-(pyridin-4-carbonyl)-1,4,8-triazaspiro[4,5]decan-2-one]	56
COCC(=O)N1CCC2(CC1)NC(C(C)C)C(=O)N2Cc1cccc(C#N)c1 (centres unmarked) [Example 282, 3-[3-Isopropyl-8-(2-methoxyacetyl)-2-oxo-1,4,8-triazaspiro[4,5]dec-1-ylmethyl]benzonitrile]	49

Now from value to molecule:

inhibition at 1 µM [%]	Compound
49	Cc1nc(C(F)(F)F)ccc1C(=O)N1CCC2(CC1)NC(C(C)C)C(=O)N2Cc1ccccc1 (centres unmarked) [Example 178, 1-Benzyl-3-isopropyl-8-(2-methyl-6-trifluoromethylpyridin-3-carbonyl)-1,4,8-triazaspiro[4,5]decan-2-one]
50	C#CCN1C(=O)C(Cc2ccccc2)NC12CCN(C(=O)c1cc(C)on1)CC2 (centres unmarked) [Example 251, 3-Benzyl-8-(5-methylisoxazole-3-carbonyl)-1-prop-2-ynyl-1,4,8-triazaspiro[4,5]decan-2-one]
62	CSCCC1NC2(CCN(C(=O)c3cccnc3Oc3ccccc3)CC2)N(Cc2ccccc2)C1=O (centres unmarked) [Example 171, 1-Benzyl-3-(2-methylsulfanylethyl)-8-(2-phenoxypyridin-3-carbonyl)-1,4,8-triazaspiro[4,5]decan-2-one]
32	CC(C)C1NC2(CCN(C(=O)c3ccco3)CC2)N(Cc2ccccc2)C1=O (centres unmarked) [Example 228, 1-Benzyl-8-(furan-2-carbonyl)-3-isopropyl-1,4,8-triazaspiro[4,5]decan-2-one]
43	CCCCN1C(=O)C(Cc2ccccc2)NC12CCN(C(=O)COC)CC2 (centres unmarked) [Example 190, 3-Benzyl-1-butyl-8-(2-methoxyacetyl)-1,4,8-triazaspiro[4,5]decan-2-one]
39	CCCCN1C(=O)C(CCSC)NC12CCN(C(=O)CCCOc1ccccc1)CC2 (centres unmarked) [Example 161, 1-Butyl-3-(2-methylsulfanylethyl)-8-(4-phenoxybutyryl)-1,4,8-triazaspiro[4,5]decan-2-one]
71	CSCCC1NC2(CCN(C(=O)c3cccnc3Oc3ccccc3)CC2)N(Cc2ccccc2F)C1=O (centres unmarked) [Example 163, 1-(2-Fluorobenzyl)-3-(2-methylsulfanylethyl)-8-(2-phenoxypyridin-3-carbonyl)-1,4,8-triazaspiro[4,5]decan-2-one]
39	C=CCN1C(=O)C(CCSC)NC12CCN(C(=O)C(=O)OCC)CC2 (centres unmarked) [Example 261, Ethyl 2-[1-allyl-3-(2-methylsulfanylethyl)-2-oxo-1,4,8-triazaspiro[4,5]dec-8-yl]-2-oxo-acetate]
53	COCCOCC(=O)N1CCC2(CC1)NC(CCSC)C(=O)N2Cc1ccccc1C#N (centres unmarked) [Example 114, 2-[8-[2-(2-Methoxyethoxy)acetyl]-3-(2-methylsulfanylethyl)-2-oxo-1,4,8-triazaspiro[4,5]dec-1-ylmethyl]benzonitrile]
45	CSCCC1NC2(CCN(C(=O)c3ccco3)CC2)N(Cc2ccc(F)cc2)C1=O (centres unmarked) [Example 147, 1-(4-Fluorobenzyl)-8-(furan-2-carbonyl)-3-(2-methylsulfanylethyl)-1,4,8-triazaspiro[4,5]decan-2-one]
32	C=CCN1C(=O)C(C(C)C)NC12CCN(C(=O)c1ccccc1C)CC2 (centres unmarked) [Example 325, 1-Allyl-3-isopropyl-8-(2-methylbenzoyl)-1,4,8-triazaspiro[4,5]decan-2-one]
74	CCCCN1C(=O)C(Cc2ccccc2)NC12CCN(C(=O)c1cc(C(F)(F)F)ccc1C(F)(F)F)CC2 (centres unmarked) [Example 155, 3-Benzyl-8-(2,5-bis-trifluoromethylbenzoyl)-1-butyl-1,4,8-triazaspiro[4,5]decan-2-one]
60	Cn1nc(C(C)(C)C)cc1C(=O)N1CCC2(CC1)NCC(=O)N2Cc1ccccc1F [Example 313, 8-(5-tert-Butyl-2-methyl-2H-pyrazole-3-carbonyl)-1-(2-fluorobenzyl)-1,4,8-triazaspiro[4,5]decan-2-one]
43	C#CCN1C(=O)C(Cc2ccccc2)NC12CCN(C(=O)COC)CC2 (centres unmarked) [Example 81, 3-Benzyl-8-(2-methoxyacetyl)-1-prop-2-ynyl-1,4,8-triazaspiro[4,5]decan-2-one]
43	COc1cc(C(=O)N2CCC3(CC2)NCC(=O)N3Cc2cccc(C#N)c2)cc(OC)c1OC [Example 277, 3-[2-Oxo-8-(3,4,5-trimethoxybenzoyl)-1,4,8-triazaspiro[4,5]dec-1-ylmethyl]benzonitrile]
30	Cc1ccc(Cl)c(C(=O)N2CCC3(CC2)NC(Cc2ccccc2)C(=O)N3C)c1F (centres unmarked) [Example 224, 3-Benzyl-8-(6-chloro-2-fluoro-3-methylbenzoyl)-1-methyl-1,4,8-triazaspiro[4,5]decan-2-one]
46	CCCCN1C(=O)C(Cc2ccccc2)NC12CCN(C(=O)c1snnc1C)CC2 (centres unmarked) [Example 243, 3-Benzyl-1-butyl-8-(4-methyl[1,2,3]thiadiazole-5-carbonyl)-1,4,8-triazaspiro[4,5]decan-2-one]
46	COc1ccc(C(=O)N2CCC3(CC2)NC(CCSC)C(=O)N3C)c(OC)c1 (centres unmarked) [Example 67, 8-(2,4-Dimethoxybenzoyl)-1-methyl-3-(2-methylsulfanylethyl)-1,4,8-triazaspiro[4,5]decan-2-one]
60	C#CCN1C(=O)C(CCSC)NC12CCN(C(=O)CCCOc1ccccc1)CC2 (centres unmarked) [Example 222, 3-(2-Methylsulfanylethyl)-8-(4-phenoxybutyryl)-1-prop-2-ynyl-1,4,8-triazaspiro[4,5]decan-2-one]
45	C#CCN1C(=O)C(CC(C)C)NC12CCN(C(=O)c1ccc(OC(F)(F)F)cc1)CC2 (centres unmarked) [Example 234, 3-Isobutyl-1-prop-2-ynyl-8-(4-trifluoromethoxybenzoyl)-1,4,8-triazaspiro[4,5]decan-2-one]
51	COC(=O)c1ccc(CN2C(=O)CNC23CCN(C(=O)Cc2ccccc2)CC3)cc1 [Example 283, Methyl 4-(2-oxo-8-phenylacetyl-1,4,8-triazaspiro[4,5]dec-1-ylmethyl)benzoate]
75	CCC(CC)C(=O)N1CCC2(CC1)NCC(=O)N2Cc1ccccc1C#N [Example 68, 2-[8-(2-Ethylbutyryl)-2-oxo-1,4,8-triazaspiro[4,5]dec-1-ylmethyl]benzonitrile]

— US7951815B2, “Substituted 1,4,8-triazaspiro [4,5]decan-2-one compounds” (Gruenenthal GmbH, priority 2004, dated 2011)
